Experiment [1] has as its target T1, full-length NS3/4A enzyme complex (Hepatitis C virus genotype 1b, UniProt Q9WMX2).
T1 construct: wild-type HCV NS3 (HCV polyprotein residues 1027–1657); His-tag (N); made in house
Description: Reversibility of inhibition by dilution. Type of experiment: biochemical. The settings on record: dilution 25-fold and 50-fold. The protocol: The reversibility of hit compounds was determined by dilution. The full-length NS3/4A enzyme complex was prepared as 20-fold (200 nM) of the assay concentration and was incubated with screened compounds at 20-fold IC50 value or slightly higher concentration for 30 minutes at room temperature in the same assay condition as the primary screen in a final volume of 100 µL. The concentration of enzyme and testing compound was optimized to yield at least 95% inhibition before dilution. The NS3/4A enzyme with the same volume of DMSO in place of each compound was also prepared as a control. NS3/4A activity was measured in the same way as the IC50 measurements. Then enzyme-inhibitor solution was diluted 25-fold and 50-fold and incubated for 30 minutes before measuring the percent recovery of the enzyme activity. All reversibility assays were done in triplicate.

The target of experiment [2] is T2, full-length NS3/4A (Hepatitis C virus genotype 1b, UniProt Q9WMX2).
T2 construct: wild-type HCV NS3 (HCV polyprotein residues 1027–1657); His-tag (N); made in house
Description: SPR binding assay (dissociation equilibrium constant KD). The settings on record: for SPR binding to NS3/4A, double referenced: double referenced with blank and unrelated reference protein. The method, then: The full-length NS3/4A enzyme was prepared in a storage buffer (50 mM HEPES, pH 7.6, 500 mM NaCl, 1 mM DTT, 0.2% Triton X-100, and 20% glycerol) and immobilized on a CM5 sensor chip using standard amine-coupling at 25°C with running buffer HBS-P (10 mM HEPES, 150 mM NaCl, 0.05% surfactant P-20, pH 7.4) using a Biacore T100 instrument. Flow channels 1 and 3 were activated by 1-ethyl-3-(3-dimethylaminopropyl) carbodiimide hydrocholoride (EDC)/N-hydroxy succinimide (NHS) mixture, and the activated surface was blocked by ethanolamine (pH 8.5) as controls. The NS3/4A enzyme was diluted in 10 mM sodium acetate (pH 5.0), and immobilized to flow channel 4 after sensor surface activation with EDC/NHS with a 7 min injection followed by ethanolamine blocking on unoccupied surface area. NS3/4A immobilization level was ∼8,500 response units (RU). An unrelated reference protein (92 kDa) was also immobilized to flow channel 2 as another control to be compared with NS3/4A (74.6 kDa). Fifteen initial hit compounds were prepared as 10 mM DMSO stock solutions. Compound solutions with a series of increasing concentrations (0–200 µM at 1.5-fold dilution) were applied to all four channels at a 10 µL/min flow rate at 25°C. Sensorgrams were analyzed using Biaevaluation software 2.0.3, and response unit difference (ΔRU) values at each concentration were measured during the equilibration phase. Data were either single referenced with a blank (enthanolamine) or double referenced with both blank and reference protein RU values. SigmaPlot 11.0 was used to fit the data to a single rectangular hyperbolic curve to determine KD values. The hyperbola function, y = ymax·x/(KD+x), was used to plot response units and corresponding concentration, where y is the response, ymax is the maximum response, and x is the compound concentration.
(In general: Surface plasmon resonance follows binding to a sensor surface in real time, without labels.)

For experiment [3], the target named is T3, full-length NS3/4A protease (genotype 1b) (Hepatitis C virus genotype 1b, UniProt Q9WMX2).
T3 construct: wild-type HCV NS3 (HCV polyprotein residues 1027–1657); His-tag (N); made in house
Description: biochemical. The settings on record: purified full-length NS3/4A, genotype 1b wild-type; read-out: IC50 Full-length NS3/4A. The protocol: All assays were done in duplicate in black 384-well plates (Matrix Technologies). […] 200 nL of 10 mM compound (50 µM final concentrations) were then added and incubated for 5 minutes. Enzyme reactions were initiated with 10 µL of substrate Ac-DE-Dap(QXL520)-EE-Abu-ψ-[COO]AS-C(5-FAMsp)-NH2 (Anaspec) (1 µM final concentration), incubated for 6 minutes, and quenched by 10 µL of 10% SDS as a stop solution. Fluorescence intensity was monitored with a POLARstar OPTIMA microplate reader (BMG LABTECH). Each plate contained a total of 32 positive and 32 negative controls.
A series of compound concentrations (0 to 200 µM final concentration at 2-fold serial dilution) in 100% DMSO were prepared in a 384-well plate. 20 µL of enzyme solution was distributed to wells, and 0.5 µL of varying concentration of compounds were added and incubated for 5 minutes. The enzyme reaction was initiated by adding 5 µL of the substrate, and its activity was continuously monitored for 6 minutes. The IC50 values were calculated by fitting with the Hill equation (1), with OriginPro 8.5 (OriginLab, Inc.) where y is percent inhibition, x is inhibitor concentration, n is the slope of the concentration–response curve (Hill slope), and Vmax is maximal inhibition from two to four independent assays. [drawing 1] (1)

Experiment [4] addresses T4, NS3/4A protease genotype 2a (Hepatitis C virus genotype 2a, UniProt Q99IB8).
T4 construct: against the NS3/4A protease domains from three additional HCV genotypes (1a, 2a, and 4d); purchased Anaspec
The experiment can be described thus: Inhibition assay with NS3/4A from genotype 2a. It is filed as biochemical. The settings on record: IC50 Purified NS3/4A Sub-genotype 2a, genotype 2a. The protocol: (§1) The inhibitory activity of the final hit compounds from HTS were tested against three other HCV genotypes (1a, 2a, and 4d), along with a control (genotype 1b) and five NS3 drug-resistant mutants. Eight full-length NS3 mutants (V36M, R155K, A156T, A156S, 156V, V36A, T54A, and R155T) were generated by mutagenesis and purified, and the three HCV NS3/4A protease genotypes were purchased from Anaspec. Unfortunately the enzyme activities of the three mutants V36A, T54A, and R155T were much less than that of the rest of the mutants and were insufficient for testing, therefore mutant studies were done with the five active mutants. Continuous kinetic assays were performed against all hit compounds in the same way as the wild-type NS3/4A. As a control, full-length NS3/4A (genotype 1b) was tested under the same conditions for direct comparison for each plate.

The target in experiment [5] is T2, full-length NS3/4A. The experiment can be described thus: Type (mechanism) of enzyme inhibition, kinetic analysis. Type of experiment: biochemical. The protocol: Full-length NS3/4A activity was monitored in the same way as the primary screening with varying concentration of both inhibitor compounds and substrate (0–8 µM). The concentration of compounds varied from 0 to 20 µM at 1.5-fold dilution factor.

The target in experiment [6] is T5, NS3/4A protease genotype 1a (Hepatitis C virus genotype 1a, UniProt P27958).
T5 construct: against the NS3/4A protease domains from three additional HCV genotypes (1a, 2a, and 4d); purchased Anaspec
Description: Inhibition assay with NS3/4A from genotype 1a. Type of experiment: biochemical. The settings on record: IC50 NS3/4A genotype 1a. The protocol: as §1

Experiment [7] deals with T6, full-length NS3/4A genotype 1b mutant R155K (Hepatitis C virus genotype 1b, UniProt Q9WMX2, R1181K).
T6 construct: wild-type HCV NS3 (HCV polyprotein residues 1027–1657); His-tag (N); made in house
The experiment can be described thus: Inhibition assay with drug-resistant mutant R155K. Type of experiment: biochemical. The settings on record: in words. The protocol: (§2) The full-length genes of wild-type HCV NS3 (HCV polyprotein residues 1027–1657) with a his-tag at the N-terminus and NS4A (residues 1658–1711) with no tag were cloned, co-expressed, and purified as described. Eight NS3 drug resistant mutants (V36M, V36A, T54A, R155K, R155T, A156T, A156S, and 156V) were generated by mutagenesis using full-length, wild-type NS3-containing recombinant plasmid (pETDuet-1/FL NS3/4A) as a template. The over-expression and purification of all mutants were performed by the same method as the wild-type with minor modifications.
as §1, with “As a control, full-length NS3/4A (genotype 1b) was tested under the same conditions for direct comparison for each plate.” left out

For experiment [8], the target named is T7, full-length NS3/4A genotype 1b mutant A156V (Hepatitis C virus genotype 1b, UniProt Q9WMX2, A1182V).
T7 construct: wild-type HCV NS3 (HCV polyprotein residues 1027–1657); His-tag (N); made in house
Description: Inhibition assay with drug-resistant mutant A156V. Type of experiment: biochemical. The settings on record: genotype 1b full-length mutant. The protocol: as §2
as §1, with “As a control, full-length NS3/4A (genotype 1b) was tested under the same conditions for direct comparison for each plate.” left out

The target of experiment [9] is T8, full-length NS3/4A genotype 1b mutant A156T (Hepatitis C virus genotype 1b, UniProt Q9WMX2, A1182T).
T8 construct: wild-type HCV NS3 (HCV polyprotein residues 1027–1657); His-tag (N); made in house
Description: Inhibition assay with drug-resistant mutant A156T. The settings on record: in words. Type of experiment: biochemical. The protocol:
as §2
as §1, with “As a control, full-length NS3/4A (genotype 1b) was tested under the same conditions for direct comparison for each plate.” left out

Experiment [10] concerns the target NS3/4A protease genotype 4d (Hepatitis C virus subtype 4d, UniProt Q1ZZ56). Description: Inhibition assay with NS3/4A from genotype 4d. Type of experiment: biochemical. The protocol:
as §1

The target of the next experiment is T9, Trypsin (Homo sapiens, UniProt P07477).
T9 construct: purchased Sigma
The experiment can be described thus: Inhibitor selectivity assay, trypsin (fluorometric). It is filed as biochemical. The method, then: (§3) To test for selectivity, two human serine proteases, Trypsin and Chymotrypsin (Sigma), were tested with the top two hit compounds from HTS using a fluorometric assay. The fluorogenic substrates used in this study were N-benzoyl-L-Arg-7-amido-4-methylcoumarin (Sigma) and N-succinyl-Ala-Ala-Phe-7-amido-4- methylcoumarin (Sigma) for trypsin and chymotrypsin, respectively. All assays were performed in 384-well black plates (Corning) in a total volume of 24 µL of PBS (pH 7.4) buffer containing 0.01% Triton, 0.1 mg/mL BSA, and 2 mM GSH in triplicate. A series of compound concentrations (0 to 200 µM final concentration at 2-fold serial dilution) in 100% DMSO was prepared in a 384-well plate. 20 µL of trypsin (0.01 mg/mL) and chymotrypsin (0.0001 mg/mL) solutions were distributed into wells, and 0.5 µL of varying concentration of compounds were added and incubated for 10 minutes. The enzyme reaction was initiated by adding 5 µL of the substrate (50 µM final concentration), and fluorescence intensity was continuously monitored at excitation/emission wavelengths of 350 nm/460 nm for 10 minutes.

Another experiment addresses T10, Chymotrypsin (Homo sapiens, UniProt P17538).
T10 construct: purchased Sigma
Description: Inhibitor selectivity assay, chymotrypsin (fluorometric). Type of experiment: biochemical. The settings on record: human chymotrypsin. The protocol: as §3

Experiment [11] concerns the target T11, full-length NS3/4A genotype 1b mutant A156S (Hepatitis C virus genotype 1b, UniProt Q9WMX2, A1182S).
T11 construct: wild-type HCV NS3 (HCV polyprotein residues 1027–1657); His-tag (N); made in house
The experiment can be described thus: Inhibition assay with drug-resistant mutant A156S. The settings on record: in words. Type of experiment: biochemical. The method, then: as §2
as §1, with “As a control, full-length NS3/4A (genotype 1b) was tested under the same conditions for direct comparison for each plate.” left out

The target of experiment [12] is T12, full-length NS3/4A genotype 1b mutant V36M (Hepatitis C virus genotype 1b, UniProt Q9WMX2, V1062M).
T12 construct: wild-type HCV NS3 (HCV polyprotein residues 1027–1657); His-tag (N); made in house
The experiment can be described thus: Inhibition assay with drug-resistant mutant V36M. It is filed as biochemical. The settings on record: genotype 1b full-length mutant. The method, then:
as §2
as §1, with “As a control, full-length NS3/4A (genotype 1b) was tested under the same conditions for direct comparison for each plate.” left out

“And” between values parts separate entries of the source, which are not always exact repeats. Equal entries are not always repeated. Where only a bound is given, the exact number is not on record here.

Data on two compounds can be found in paper PMC3793977, “High-Throughput Screening (HTS) and Hit Validation to Identify Small Molecule Inhibitors with Activity against NS3/4A proteases from Multiple Hepatitis C Virus Genotypes” (PLoS ONE, 2013).

T10 sequence (P17538 19-263): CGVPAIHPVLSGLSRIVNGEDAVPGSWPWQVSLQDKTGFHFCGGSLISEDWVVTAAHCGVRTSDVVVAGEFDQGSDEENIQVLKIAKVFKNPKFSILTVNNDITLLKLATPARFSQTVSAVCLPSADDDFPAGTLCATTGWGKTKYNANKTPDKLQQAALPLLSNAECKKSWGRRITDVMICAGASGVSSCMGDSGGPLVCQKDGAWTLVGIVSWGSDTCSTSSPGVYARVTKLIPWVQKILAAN

A word on the Kd: it is the constant that tells how readily two partners part at equilibrium. Low values mean higher affinity, high ones lower affinity. Consider `CC1(C)CCc2cc(/C=C(\C#N)C(=O)c3cccc(C(F)(F)F)c3)ccc2O1` [Compound 6], for which the reversibility of inhibition result in experiment [1] is reported as “reversible”. On full-length NS3/4A [2] (SPR, 25°C, single rectangular hyperbolic fit), binding was characterised by a dissociation constant (Kd) of 8.3 ± 1.9 µM. Moreover, the “SPR binding to NS3/4A, double referenced” value on full-length NS3/4A [2] is “specific binding”. Also, in experiment [3], the IC50 came out at 7.6 ± 0.6 µM.

As a reminder, the Ki is a measure of affinity in units of concentration, obtained from inhibition or displacement. For the compound `CC(C)C(=O)N1CCc2ccc(NC(=O)COc3ccc(F)cc3)cc2C1` [Compound 13], the IC50 is below 20 µM in experiment [4]; 1.7 µM and < 20 µM in experiment [6]; below 20 µM in experiment [8]; below 20 µM in [10]; 20.2 ± 2.2 µM in [3]; above 100 µM against Trypsin (human trypsin). For the same compound, the IC50 at Chymotrypsin is 110 ± 32 µM; in experiment [12], below 20 µM. Further, the affinity at full-length NS3/4A [5] (competitive model, with respect to substrate) corresponds to a Ki of 19.1 µM. In addition, the mechanism of inhibition entry on full-length NS3/4A [5] (with respect to the substrate, best fit model) is “competitive inhibitors”. In addition, the “activity against mutant R155K compared with wild-type” value in [7] is reported as “completely lost activity”. Further, the “activity against mutant A156T compared with wild-type” value in experiment [9] is on record as “decreased in activity”. Moreover, the “SPR binding to NS3/4A, double referenced” value at full-length NS3/4A [2] is given as “specific binding”. Besides, the inhibition at 100 µM at Trypsin (100 µM compound, read-out: Trypsin % Inh at 100 µM) is 5.1%. Also, in [11], the “activity against mutant A156S compared with wild-type” value is “decreased in activity”.
